Like-named read-outs stand apart in the source and are kept apart here.
What was measured:
[1] = system: adenosine uptake into HeLa cells; experiment: [3H]Adenosine uptake assay in HeLa cells; type: cell-based; conditions: compound range 10 μM to 0.032 nM
Summary of the method: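 IC50 came from a 4-parameter fit of counts per second over a ten-point, 1:3 titration (final 10 µM down to […]). Compound was applied 30 min at ambient temperature in HBSS/5% FBS before a 500 nM [3H]adenosine solution was added; uptake ran 60 min, read by Cytostar-T proximity scintillation.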

[2] = biological target: BTK enzyme (recombinant full-length BTK, hBTK) (Homo sapiens (Human), UniProt Q06187); experiment: BTK enzymatic activity LANCE TR-FRET assay; type: biochemical; conditions: 50 pM hBTK, 25 μM ATP, 2 μM biotin-A5-peptide; compound range 1 μM to 0.017 nM; read-out: BTK binding IC50
[3] = Homo sapiens, HeLa, [3H]adenosine accumulation in HeLa cells, read-out: ADU inhibition IC50
[4] = Homo sapiens, HeLa, read-out: ADU inhibition IC50 (nM), [3H]adenosine accumulation in HeLa cells
[5] = [3H]adenosine accumulation in HeLa cells, read-out: ADU inhibition IC50

Chain of BTK enzyme (recombinant full-length BTK, hBTK) (Q06187 whole entry): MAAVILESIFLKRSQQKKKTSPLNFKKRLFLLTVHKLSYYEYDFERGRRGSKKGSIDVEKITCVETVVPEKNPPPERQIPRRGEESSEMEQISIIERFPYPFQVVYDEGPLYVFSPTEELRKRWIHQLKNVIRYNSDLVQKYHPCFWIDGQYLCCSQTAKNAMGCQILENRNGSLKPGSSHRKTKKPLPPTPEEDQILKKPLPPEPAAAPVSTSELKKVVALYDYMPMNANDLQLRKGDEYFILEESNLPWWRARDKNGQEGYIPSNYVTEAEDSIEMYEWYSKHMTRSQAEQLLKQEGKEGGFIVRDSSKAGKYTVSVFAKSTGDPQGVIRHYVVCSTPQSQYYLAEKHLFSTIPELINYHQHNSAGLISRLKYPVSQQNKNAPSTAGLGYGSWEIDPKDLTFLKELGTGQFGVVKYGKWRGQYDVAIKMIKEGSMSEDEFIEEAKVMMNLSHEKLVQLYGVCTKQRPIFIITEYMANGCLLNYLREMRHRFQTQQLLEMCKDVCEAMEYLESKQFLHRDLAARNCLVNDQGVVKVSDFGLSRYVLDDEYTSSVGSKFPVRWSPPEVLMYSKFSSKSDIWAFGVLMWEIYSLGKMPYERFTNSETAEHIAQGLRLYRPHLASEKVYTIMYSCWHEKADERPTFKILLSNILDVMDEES

SMILES	IC50 [1, 3] [nM]	IC50 [2] [µM]	IC50 [1, 4] [nM]	IC50 [1, 5] [nM]
C[C@](O)(c1ccc(-c2nc([C@@H]3CC[C@H]4CCC(=O)N4C3)n3ccnc(N)c23)cc1)c1cncc(C(F)(F)F)c1 [Example 135, (6R,8aS)-6-[8-amino-1-(4-{(1S)-1-hydroxy-1-[5-(trifluoromethyl)pyridin-3-yl]ethyl}phenyl)imidazo [1,5-a]pyrazin-3-yl]hexahydroindolizin-3(2H)-one]	973	1	–	–
C[C@@](O)(c1ccc(-c2nc([C@@H]3CC[C@H]4CCC(=O)N4C3)n3ccnc(N)c23)cc1)c1cncc(C(F)(F)F)c1 [Example 136, (6R,8aS)-6-[8-amino-1-(4-{(1R)-1-hydroxy-1-[5-(trifluoromethyl)pyridin-3-yl]ethyl}phenyl)imidazo [1,5-a]pyrazin-3-yl]hexahydroindolizin-3(2H)-one]	4620	0.0876	–	–
C[C@](O)(c1ccc(-c2nc([C@@H]3CC[C@H]4CCC(=O)N4C3)n3ccnc(N)c23)cc1)c1cccc(C(F)(F)F)n1 [Example 137, (6R,8aS)-6-[8-amino-1-(4-{(1S)-1-hydroxy-1-[6-(trifluoromethyl)pyridin-2-yl]ethyl}phenyl)imidazo [1,5-a]pyrazin-3-yl]hexahydroindolizin-3(2H)-one]	865	0.877	–	–
C[C@@](O)(c1ccc(-c2nc([C@@H]3CC[C@H]4CCC(=O)N4C3)n3ccnc(N)c23)cc1)c1cccc(C(F)(F)F)n1 [Example 138, (6R,8aS)-6-[8-amino-1-(4-{(1R)-1-hydroxy-1-[6-(trifluoromethyl)pyridin-2-yl]ethyl}phenyl)imidazo [1,5-a]pyrazin-3-yl]hexahydroindolizin-3(2H)-one]	4760	0.025	–	–
CC(F)(F)c1cccc([C@@](C)(O)c2ccc(-c3nc([C@@H]4CC[C@H]5CCC(=O)N5C4)n4c(Cl)cnc(N)c34)cc2)c1 [Example 139, (6R,8aS)-6-[8-amino-5-chloro-1-(4-{(1S)-1-[3-(1,1-difluoroethyl)phenyl]-1-hydroxyethyl}phenyl)imidazo[1,5-a]pyrazin-3-yl]hexahydroindolizin-3(2H)-one]	–	0.0249	449	–
CC(F)(F)c1cccc([C@](C)(O)c2ccc(-c3nc([C@@H]4CC[C@H]5CCC(=O)N5C4)n4c(Cl)cnc(N)c34)cc2)c1 [Example 140]	–	0.00022	1200	–
COc1cc([C@@](C)(O)c2cccc(C(F)(F)F)c2)ccc1-c1nc([C@@H]2CC[C@H]3CCC(=O)N3C2)n2ccnc(N)c12 [Example 141, (6R,8aS)-6-[8-amino-1-(4-{(1S)-1-hydroxy-1-[3-(trifluoromethyl)phenyl]ethyl}-2-methoxyphenyl)imidazo [1,5-a]pyrazin-3-yl]hexahydroindolizin-3(2H)-one]	1980	0.0938	–	–
COc1cc([C@](C)(O)c2cccc(C(F)(F)F)c2)ccc1-c1nc([C@@H]2CC[C@H]3CCC(=O)N3C2)n2ccnc(N)c12 [Example 142, (6R,8aS)-6-[8-amino-1-(4-{(1R)-1-hydroxy-1-[3-(trifluoromethyl)phenyl]ethyl}-2-methoxyphenyl)imidazo [1,5-a]pyrazin-3-yl]hexahydroindolizin-3(2H)-one]	7160	0.002	–	–
CC(O)(c1ccc(-c2nc([C@@H]3CC[C@H]4CCC(=O)N4C3)n3ccnc(N)c23)cc1)C1CC2CCC1CC2 (stereo partly drawn) [Example 143, (6R,8aS)-6-{8-amino-1-[4-(1-bicyclo[2.2.2]oct-2-yl-1-hydroxyethyl)phenyl]imidazo[1,5-a]pyrazin-3-yl}hexahydroindolizin-3(2H)-one]	–	0.9	–	839
CC(O)(c1ccc(-c2nc([C@@H]3CC[C@H]4CCC(=O)N4C3)n3ccnc(N)c23)cc1)c1cccc(OC(F)F)c1 (stereo partly drawn) [Example 144, (6R,8aS)-6-[8-amino-1-(4-{1-[3-(difluoromethoxy)phenyl]-1-hydroxyethyl}phenyl)imidazo[1,5-a]pyrazin-3-yl]hexahydroindolizin-3(2H)-one]	–	0.0676	–	985
CC(O)(c1ccc(-c2nc([C@@H]3CC[C@H]4CCC(=O)N4C3)n3ccnc(N)c23)cc1)c1cc(C(F)(F)F)ccc1F (stereo partly drawn) [Example 145, (6R,8aS)-6-[8-amino-1-(4-{1-[2-fluoro-5-(trifluoromethyl)phenyl]-1-hydroxyethyl}phenyl)imidazo[1,5-a]pyrazin-3-yl]hexahydroindolizin-3(2H)-one]	1220	1	–	–
CC(O)(c1ccc(-c2nc([C@@H]3CC[C@H]4CCC(=O)N4C3)n3ccnc(N)c23)cc1)c1cc(C(F)(F)F)cc(C(F)(F)F)c1 (stereo partly drawn) [Example 146, (6R,8aS)-6-[8-amino-1-(4-{1-[3,5-bis(trifluoromethyl)phenyl]-1-hydroxyethyl}phenyl)imidazo[1,5-a]pyrazin-3-yl]hexahydroindolizin-3(2H)-one]	1490	0.752	–	–
CC(O)(c1ccc(-c2nc([C@@H]3CC[C@H]4CCC(=O)N4C3)n3ccnc(N)c23)cc1)C1CC2CCC1CC2 (stereo partly drawn) [Example 147, (6R,8aS)-6-{8-amino-1-[4-(1-bicyclo[2.2.2]oct-2-yl-1-hydroxyethyl)phenyl]imidazo[1,5-a]pyrazin-3-yl}hexahydroindolizin-3(2H)-one]	–	0.0262	–	3830
CC(O)(c1ccc(-c2nc([C@@H]3CC[C@H]4CCC(=O)N4C3)n3ccnc(N)c23)cc1)c1cccc(OC(F)F)c1 (stereo partly drawn) [Example 148, (6R,8aS)-6-[8-amino-1-(4-{1-[3-(difluoromethoxy)phenyl]-1-hydroxyethyl}phenyl)imidazo[1,5-a]pyrazin-3-yl]hexahydroindolizin-3(2H)-one]	–	0.0002	–	2990
CC(O)(c1ccc(-c2nc([C@@H]3CC[C@H]4CCC(=O)N4C3)n3ccnc(N)c23)cc1)C1CC2CCC1CC2 (stereo partly drawn) [Example 149, (6R,8aS)-6-{8-amino-1-[4-(1-bicyclo[2.2.2]oct-2-yl-1-hydroxyethyl)phenyl]imidazo[1,5-a]pyrazin-3-yl}hexahydroindolizin-3(2H)-one]	–	0.888	–	701
CC(O)(c1ccc(-c2nc([C@@H]3CC[C@H]4CCC(=O)N4C3)n3ccnc(N)c23)cc1)C1CC2CCC1CC2 (stereo partly drawn) [Example 150, (6R,8aS)-6-{8-amino-1-[4-(1-bicyclo[2.2.2]oct-2-yl-1-hydroxyethyl)phenyl]imidazo[1,5-a]pyrazin-3-yl}hexahydroindolizin-3(2H)-one]	–	0.0016	–	2410
CC(O)(c1ccc(-c2nc([C@@H]3CC[C@H]4CCC(=O)N4C3)n3ccnc(N)c23)cc1)c1cc(C(F)(F)F)ccc1F (stereo partly drawn) [Example 151, (6R,8aS)-6-[8-amino-1-(4-{1-[2-fluoro-5-(trifluoromethyl)pheny]-1-hydroxyethyl}phenyl)imidazo[1,5-a]pyrazin-3-yl]hexahydroindolizin-3(2H)-one]	–	0.0121	–	2040
C[C@@](O)(c1ccc(-c2nc([C@@H]3CC[C@H]4CCC(=O)N4C3)n3ccnc(N)c23)cc1)c1cccc(-n2ccnc2)c1 [Example 152, (6R,8aS)-6-[8-amino-1-(4-{(1R)-1-hydroxy-1-[3-(1H-imidazol-1-yl)phenyl]ethyl}phenyl)imidazo[1,5-a]pyrazin-3-yl]hexahydroindolizin-3(2H)-one]	2960	0.0391	–	–
C[C@](O)(c1ccc(-c2nc([C@@H]3CC[C@H]4CCC(=O)N4C3)n3ccnc(N)c23)cc1)c1cccc(-n2ccnc2)c1 [Example 153, (6R,8aS)-6-[8-amino-1-(4-{(1S)-1-hydroxy-1-[3-(1H-imidazol-1-yl)phenyl]ethyl}phenyl)imidazo[1,5-a]pyrazin-3-yl]hexahydroindolizin-3(2H)-one]	1960	1	–	–
C[C@](O)(c1ccc(-c2nc([C@@H]3CC[C@H]4CCC(=O)N4C3)n3ccnc(N)c23)cc1)c1ccnc(C(F)(F)F)c1 [Example 154, (6R,8aS)-6-[8-amino-1-(4-{(1S)-1-hydroxy-1-[2-(trifluoromethyl)pyridin-4-yl]ethyl}phenyl)imidazo [1,5-a]pyrazin-3-yl]hexahydroindolizin-3(2H)-one]	464	1	–	–
C[C@@](O)(c1ccc(-c2nc([C@@H]3CC[C@H]4CCC(=O)N4C3)n3ccnc(N)c23)cc1)c1ccnc(C(F)(F)F)c1 [Example 155, (6R,8aS)-6-[8-amino-1-(4-{(1R)-1-hydroxy-1-[2-(trifluoromethyl)pyridin-4-yl]ethyl}phenyl)imidazo [1,5-a]pyrazin-3-yl]hexahydroindolizin-3(2H)-one]	2750	0.858	–	–
C[C@@](O)(c1ccc(-c2nc([C@H]3CC[C@@H]4COCC(=O)N4C3)n3ccnc(N)c23)cc1)c1cccc(C(F)(F)F)c1 [Example 156, (7S,9aR)-7-(8-amino-1-(4-{(1R)-1-hydroxy-1-[3-(trifluoromethyl)pheny]ethyl}phenyl)imidazo [1,5-a]pyrazin-3-yl]hexahydropyrido[2,1-c][1,4]oxazin-4(3H)-one]	1470	0.0723	–	–
C[C@@](O)(c1ccc(-c2nc([C@@H]3CC[C@H]4COCC(=O)N4C3)n3ccnc(N)c23)cc1)c1cccc(C(F)(F)F)c1 [Example 157, (7R,9aS)-7-[8-amino-1-(4-{(1R)-1-hydroxy-1-[3-(trifluoromethyl)phenyl]ethyl}phenyl)imidazo [1,5-a]pyrazin-3-yl]hexahydropyrido[2,1-c][1,4)oxazin-4(3H)-one]	2220	0.0019	–	–

From US10214546B2, “Btk inhibitors” (MERCK SHARP & DOHME CORP., priority 2014, dated 2019)
